Experimental data: publication PMC6874179, “Development of Macrocycle Kinase Inhibitors for ALK2 Using Fibrodysplasia Ossificans Progressiva‐Derived Endothelial Cells” (JBMR Plus, 2019)

Tests used:
[1] = molecular target: ALK2 wt (Homo sapiens, UniProt Q04771); experiment: RBC HotSpot Kinase assay; type: biochemical
[2] = molecular target: T1, MELK (Homo sapiens, UniProt Q14680); experiment: Proqinase Kinase profiling; type: biochemical; conditions: read-out: % inhibition at 100nM
T1 construct: purchased DiscoverX

[3] = molecular target: T2, RET_M918T (Homo sapiens, UniProt P07949, M918T); experiment: Proqinase Kinase profiling; type: biochemical; conditions: read-out: % inhibition at 100nM
T2 construct: purchased DiscoverX

[4] = molecular target: T3, TNK2 (Homo sapiens, UniProt Q07912); experiment: Proqinase Kinase profiling; type: biochemical; conditions: read-out: % inhibition at 100nM
T3 construct: purchased DiscoverX

[5] = molecular target: T4, CHUK (Homo sapiens, UniProt O15111); experiment: Proqinase Kinase profiling; type: biochemical; conditions: read-out: % inhibition at 100nM
T4 construct: purchased DiscoverX

[6] = molecular target: T5, EGFR_T790M_L858R (Homo sapiens, UniProt P00533, L858R/T790M); experiment: Proqinase Kinase profiling; type: biochemical; conditions: read-out: % inhibition at 100nM
T5 construct: purchased DiscoverX

[7] = molecular target: T6, PRKX (Homo sapiens, UniProt P51817); experiment: Proqinase Kinase profiling; type: biochemical; conditions: read-out: % inhibition at 100nM
T6 construct: purchased DiscoverX

[8] = molecular target: T7, LRRK2_G2019S (Homo sapiens, UniProt Q5S007, G2019S); experiment: Proqinase Kinase profiling; type: biochemical; conditions: read-out: % inhibition at 100nM
T7 construct: purchased DiscoverX

[9] = molecular target: T8, MAPK15 (Homo sapiens, UniProt Q8TD08); experiment: Proqinase Kinase profiling; type: biochemical; conditions: read-out: % inhibition at 100nM
T8 construct: purchased DiscoverX

[10] = molecular target: T9, IGF1R (Homo sapiens, UniProt P08069); experiment: Proqinase Kinase profiling; type: biochemical; conditions: read-out: % inhibition at 100nM
T9 construct: purchased DiscoverX

[11] = molecular target: T10, SGK1 (Homo sapiens, UniProt O00141); experiment: Proqinase Kinase profiling; type: biochemical; conditions: read-out: % inhibition at 100nM
T10 construct: purchased DiscoverX

[12] = molecular target: T11, FGFR3_K650E (Homo sapiens, UniProt P22607, K650E); experiment: Proqinase Kinase profiling; type: biochemical; conditions: read-out: % inhibition at 100nM
T11 construct: purchased DiscoverX

[13] = molecular target: T12, EGFR_L858R (Homo sapiens, UniProt P00533, L858R); experiment: Proqinase Kinase profiling; type: biochemical; conditions: read-out: % inhibition at 100nM
T12 construct: purchased DiscoverX

[14] = molecular target: T13, TGFBR2 (Homo sapiens, UniProt P37173); experiment: Proqinase Kinase profiling; type: biochemical; conditions: read-out: % inhibition at 100nM
T13 construct: purchased DiscoverX

[15] = molecular target: T14, AURKC (Homo sapiens, UniProt Q9UQB9); experiment: Proqinase Kinase profiling; type: biochemical; conditions: read-out: % inhibition at 100nM
T14 construct: purchased DiscoverX

[16] = molecular target: T15, BMX (Homo sapiens, UniProt P51813); experiment: Proqinase Kinase profiling; type: biochemical; conditions: read-out: % inhibition at 100nM
T15 construct: purchased DiscoverX

[17] = molecular target: T16, EPHA2 (Homo sapiens, UniProt P29317); experiment: Proqinase Kinase profiling; type: biochemical; conditions: read-out: % inhibition at 100nM
T16 construct: purchased DiscoverX

[18] = molecular target: T17, PASK (Homo sapiens, UniProt Q96RG2); experiment: Proqinase Kinase profiling; type: biochemical; conditions: read-out: % inhibition at 100nM
T17 construct: purchased DiscoverX

[19] = molecular target: T18, BRSK1 (Homo sapiens, UniProt Q8TDC3); experiment: Proqinase Kinase profiling; type: biochemical; conditions: read-out: % inhibition at 100nM
T18 construct: purchased DiscoverX

[20] = molecular target: T19, MST4 (Homo sapiens, UniProt Q9P289); experiment: Proqinase Kinase profiling; type: biochemical; conditions: read-out: % inhibition at 100nM
T19 construct: purchased DiscoverX

[21] = molecular target: T20, CAMKK2 (Homo sapiens, UniProt Q96RR4); experiment: Proqinase Kinase profiling; type: biochemical; conditions: read-out: % inhibition at 100nM
T20 construct: purchased DiscoverX

[22] = molecular target: T21, GSK3B (Homo sapiens, UniProt P49841); experiment: Proqinase Kinase profiling; type: biochemical; conditions: read-out: % inhibition at 100nM
T21 construct: purchased DiscoverX

[23] = molecular target: T22, EPHB2 (Homo sapiens, UniProt P29323); experiment: Proqinase Kinase profiling; type: biochemical; conditions: read-out: % inhibition at 100nM
T22 construct: purchased DiscoverX

[24] = molecular target: T23, PRKCZ (Homo sapiens, UniProt Q05513); experiment: Proqinase Kinase profiling; type: biochemical; conditions: read-out: % inhibition at 100nM
T23 construct: purchased DiscoverX

[25] = molecular target: T24, MET_Y1230A (Homo sapiens, UniProt P08581, Y1230A); experiment: Proqinase Kinase profiling; type: biochemical; conditions: read-out: % inhibition at 100nM
T24 construct: purchased DiscoverX

[26] = molecular target: T25, FGFR4 (Homo sapiens, UniProt P22455); experiment: Proqinase Kinase profiling; type: biochemical; conditions: read-out: % inhibition at 100nM
T25 construct: purchased DiscoverX

[27] = molecular target: T26, KDR (Homo sapiens, UniProt P35968); experiment: Proqinase Kinase profiling; type: biochemical; conditions: read-out: % inhibition at 100nM
T26 construct: purchased DiscoverX

[28] = molecular target: T27, ABL1 (Homo sapiens, UniProt P00519); experiment: Proqinase Kinase profiling; type: biochemical; conditions: read-out: % inhibition at 100nM
T27 construct: purchased DiscoverX

[29] = molecular target: T28, WNK1 (Homo sapiens, UniProt Q9H4A3); experiment: Proqinase Kinase profiling; type: biochemical; conditions: read-out: % inhibition at 100nM
T28 construct: purchased DiscoverX

[30] = test system: BMP-6-induced p-Smad1/5; experiment: Western blot of p-Smad1/5 in KS483 cells; type: cell-based, mouse
Procedure: Compounds were added for 16 hours at 0.5μM before luciferase activity was measured.
Cells were seeded into 6-well plates and cultured till they reached confluence. Next, cells were stimulated as indicated and then washed with cold PBS. […] Electrophoresis was performed in 10% SDS/polyacrylamide gels. Separated proteins were transferred to nitrocellulose membranes (0.5 A at 100 V; in ice) for 1 hour. Blots were blocked in Tris-Buffered Saline solution containing 0.1% Tween 20 and 5% non-fat dry milk overnight at 4 °C, and immune-detection of specific proteins was carried out with primary antibodies (see above) followed by horseradish peroxidase-conjugated anti-mouse or anti-rabbit (GE Healthcare, Eindhoven, The Netherlands) secondary antibodies using an ECL system (Fisher Scientific, Landsmeer, The Netherlands).

[31] = molecular target: T29, FYN (Homo sapiens, UniProt P06241); experiment: Proqinase Kinase profiling; type: biochemical; conditions: read-out: % inhibition at 100nM
T29 construct: purchased DiscoverX

[32] = molecular target: T30, STK16 (Homo sapiens, UniProt O75716); experiment: Proqinase Kinase profiling; type: biochemical; conditions: read-out: % inhibition at 100nM
T30 construct: purchased DiscoverX

[33] = molecular target: T31, RPS6KA4 (Homo sapiens, UniProt O75676); experiment: Proqinase Kinase profiling; type: biochemical; conditions: read-out: % inhibition at 100nM
T31 construct: purchased DiscoverX

[34] = molecular target: T32, NTRK2 (Homo sapiens, UniProt Q16620); experiment: Proqinase Kinase profiling; type: biochemical; conditions: read-out: % inhibition at 100nM
T32 construct: purchased DiscoverX

[35] = molecular target: T33, CDK2_cyclinE (Homo sapiens, UniProt P24941); experiment: Proqinase Kinase profiling; type: biochemical; conditions: read-out: % inhibition at 100nM
T33 construct: purchased DiscoverX

[36] = molecular target: T34, GRK6 (Homo sapiens, UniProt P43250); experiment: Proqinase Kinase profiling; type: biochemical; conditions: read-out: % inhibition at 100nM
T34 construct: purchased DiscoverX

[37] = molecular target: T35, MERTK (Homo sapiens, UniProt Q12866); experiment: Proqinase Kinase profiling; type: biochemical; conditions: read-out: % inhibition at 100nM
T35 construct: purchased DiscoverX

[38] = molecular target: T36, CDK9_cyclinK (Homo sapiens, UniProt P50750); experiment: Proqinase Kinase profiling; type: biochemical; conditions: read-out: % inhibition at 100nM
T36 construct: purchased DiscoverX

[39] = molecular target: T37, DMPK (Homo sapiens, UniProt Q09013); experiment: Proqinase Kinase profiling; type: biochemical; conditions: read-out: % inhibition at 100nM
T37 construct: purchased DiscoverX

T12 sequence (P00533 25-1210 L858R): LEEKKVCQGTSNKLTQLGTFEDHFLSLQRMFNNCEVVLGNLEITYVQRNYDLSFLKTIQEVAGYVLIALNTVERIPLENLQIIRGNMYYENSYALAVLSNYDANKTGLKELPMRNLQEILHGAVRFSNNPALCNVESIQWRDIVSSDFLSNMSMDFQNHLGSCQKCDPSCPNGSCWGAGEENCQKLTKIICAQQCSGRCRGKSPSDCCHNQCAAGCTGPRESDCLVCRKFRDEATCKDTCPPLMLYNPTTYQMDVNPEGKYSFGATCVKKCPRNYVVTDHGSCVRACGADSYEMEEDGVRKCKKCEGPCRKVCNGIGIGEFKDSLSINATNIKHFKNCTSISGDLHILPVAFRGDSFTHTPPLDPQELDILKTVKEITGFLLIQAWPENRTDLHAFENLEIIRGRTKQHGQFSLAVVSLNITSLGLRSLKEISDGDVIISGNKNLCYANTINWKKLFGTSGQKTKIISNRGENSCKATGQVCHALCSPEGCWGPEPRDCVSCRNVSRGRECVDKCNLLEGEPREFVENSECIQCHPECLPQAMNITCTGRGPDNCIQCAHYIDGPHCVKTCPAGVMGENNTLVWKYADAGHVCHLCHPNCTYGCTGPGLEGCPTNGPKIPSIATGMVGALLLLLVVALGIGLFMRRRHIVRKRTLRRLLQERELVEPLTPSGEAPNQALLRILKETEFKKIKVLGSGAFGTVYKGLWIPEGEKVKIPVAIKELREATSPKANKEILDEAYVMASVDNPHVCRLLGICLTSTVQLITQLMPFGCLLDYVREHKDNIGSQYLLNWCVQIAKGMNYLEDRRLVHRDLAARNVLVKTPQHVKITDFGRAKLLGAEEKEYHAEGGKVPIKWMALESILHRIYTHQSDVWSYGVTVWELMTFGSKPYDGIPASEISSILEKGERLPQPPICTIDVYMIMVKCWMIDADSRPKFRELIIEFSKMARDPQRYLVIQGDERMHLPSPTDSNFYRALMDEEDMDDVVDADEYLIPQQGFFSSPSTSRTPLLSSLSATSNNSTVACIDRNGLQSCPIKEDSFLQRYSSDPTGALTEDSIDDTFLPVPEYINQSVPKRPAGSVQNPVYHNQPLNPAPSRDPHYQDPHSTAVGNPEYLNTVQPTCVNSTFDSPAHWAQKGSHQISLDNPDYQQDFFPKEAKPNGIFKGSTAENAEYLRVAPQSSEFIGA
T25 sequence (P22455 22-802): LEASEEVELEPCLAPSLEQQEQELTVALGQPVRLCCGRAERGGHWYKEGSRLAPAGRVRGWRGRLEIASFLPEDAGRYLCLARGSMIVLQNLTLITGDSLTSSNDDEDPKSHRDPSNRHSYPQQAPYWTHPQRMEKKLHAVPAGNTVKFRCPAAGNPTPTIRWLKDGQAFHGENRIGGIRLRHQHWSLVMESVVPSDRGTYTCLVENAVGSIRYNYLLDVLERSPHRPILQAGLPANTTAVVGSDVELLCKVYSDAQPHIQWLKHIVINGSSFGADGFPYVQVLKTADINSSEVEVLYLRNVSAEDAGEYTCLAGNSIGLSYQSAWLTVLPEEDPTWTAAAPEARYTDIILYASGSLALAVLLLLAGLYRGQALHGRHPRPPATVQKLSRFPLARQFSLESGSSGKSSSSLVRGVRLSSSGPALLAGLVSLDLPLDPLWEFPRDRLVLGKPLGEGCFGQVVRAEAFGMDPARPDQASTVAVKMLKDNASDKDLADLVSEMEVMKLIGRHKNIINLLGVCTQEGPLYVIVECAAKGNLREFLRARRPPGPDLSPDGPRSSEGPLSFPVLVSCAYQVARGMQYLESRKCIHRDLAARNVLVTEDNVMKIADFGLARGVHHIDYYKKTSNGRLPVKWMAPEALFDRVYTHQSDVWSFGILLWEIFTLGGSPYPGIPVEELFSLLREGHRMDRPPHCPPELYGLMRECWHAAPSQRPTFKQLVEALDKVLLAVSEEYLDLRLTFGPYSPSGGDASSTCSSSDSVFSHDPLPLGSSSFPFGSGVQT
T32 sequence (Q16620 32-822): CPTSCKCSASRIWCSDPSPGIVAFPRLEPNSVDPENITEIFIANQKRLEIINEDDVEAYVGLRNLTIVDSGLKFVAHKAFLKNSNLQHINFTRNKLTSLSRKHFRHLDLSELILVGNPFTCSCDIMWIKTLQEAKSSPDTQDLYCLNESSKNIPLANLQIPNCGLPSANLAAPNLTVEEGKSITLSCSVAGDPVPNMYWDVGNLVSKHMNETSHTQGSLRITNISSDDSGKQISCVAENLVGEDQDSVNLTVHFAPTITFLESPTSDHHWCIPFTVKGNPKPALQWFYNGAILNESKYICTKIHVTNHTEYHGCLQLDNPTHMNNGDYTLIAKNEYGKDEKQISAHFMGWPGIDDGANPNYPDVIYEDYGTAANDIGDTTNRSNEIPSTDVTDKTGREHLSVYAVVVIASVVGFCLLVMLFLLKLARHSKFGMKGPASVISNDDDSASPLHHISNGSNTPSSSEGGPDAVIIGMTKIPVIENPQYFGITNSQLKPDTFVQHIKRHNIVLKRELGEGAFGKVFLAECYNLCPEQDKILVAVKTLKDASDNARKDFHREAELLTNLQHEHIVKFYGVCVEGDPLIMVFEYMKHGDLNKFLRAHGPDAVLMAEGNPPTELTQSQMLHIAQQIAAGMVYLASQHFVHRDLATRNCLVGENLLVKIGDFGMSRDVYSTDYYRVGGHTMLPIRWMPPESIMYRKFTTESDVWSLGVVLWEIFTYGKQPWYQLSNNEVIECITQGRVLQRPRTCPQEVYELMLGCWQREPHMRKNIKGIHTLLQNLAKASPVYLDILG
T23 sequence (Q05513 whole entry): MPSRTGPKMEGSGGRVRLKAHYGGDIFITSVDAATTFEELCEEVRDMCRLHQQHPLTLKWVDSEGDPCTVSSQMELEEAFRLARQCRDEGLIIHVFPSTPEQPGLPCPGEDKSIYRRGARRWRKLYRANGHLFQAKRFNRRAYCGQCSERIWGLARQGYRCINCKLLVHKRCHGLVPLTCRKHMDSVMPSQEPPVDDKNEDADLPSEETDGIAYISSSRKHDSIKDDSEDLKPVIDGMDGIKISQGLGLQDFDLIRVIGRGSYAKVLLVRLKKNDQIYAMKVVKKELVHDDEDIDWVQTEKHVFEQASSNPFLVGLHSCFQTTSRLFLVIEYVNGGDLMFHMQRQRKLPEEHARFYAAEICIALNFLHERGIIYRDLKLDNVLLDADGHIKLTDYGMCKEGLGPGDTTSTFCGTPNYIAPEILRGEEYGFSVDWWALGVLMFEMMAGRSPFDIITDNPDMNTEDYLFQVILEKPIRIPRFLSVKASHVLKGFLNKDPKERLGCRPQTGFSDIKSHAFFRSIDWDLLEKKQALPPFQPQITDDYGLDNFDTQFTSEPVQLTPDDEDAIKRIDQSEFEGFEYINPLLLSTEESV
T27 sequence (P00519 whole entry): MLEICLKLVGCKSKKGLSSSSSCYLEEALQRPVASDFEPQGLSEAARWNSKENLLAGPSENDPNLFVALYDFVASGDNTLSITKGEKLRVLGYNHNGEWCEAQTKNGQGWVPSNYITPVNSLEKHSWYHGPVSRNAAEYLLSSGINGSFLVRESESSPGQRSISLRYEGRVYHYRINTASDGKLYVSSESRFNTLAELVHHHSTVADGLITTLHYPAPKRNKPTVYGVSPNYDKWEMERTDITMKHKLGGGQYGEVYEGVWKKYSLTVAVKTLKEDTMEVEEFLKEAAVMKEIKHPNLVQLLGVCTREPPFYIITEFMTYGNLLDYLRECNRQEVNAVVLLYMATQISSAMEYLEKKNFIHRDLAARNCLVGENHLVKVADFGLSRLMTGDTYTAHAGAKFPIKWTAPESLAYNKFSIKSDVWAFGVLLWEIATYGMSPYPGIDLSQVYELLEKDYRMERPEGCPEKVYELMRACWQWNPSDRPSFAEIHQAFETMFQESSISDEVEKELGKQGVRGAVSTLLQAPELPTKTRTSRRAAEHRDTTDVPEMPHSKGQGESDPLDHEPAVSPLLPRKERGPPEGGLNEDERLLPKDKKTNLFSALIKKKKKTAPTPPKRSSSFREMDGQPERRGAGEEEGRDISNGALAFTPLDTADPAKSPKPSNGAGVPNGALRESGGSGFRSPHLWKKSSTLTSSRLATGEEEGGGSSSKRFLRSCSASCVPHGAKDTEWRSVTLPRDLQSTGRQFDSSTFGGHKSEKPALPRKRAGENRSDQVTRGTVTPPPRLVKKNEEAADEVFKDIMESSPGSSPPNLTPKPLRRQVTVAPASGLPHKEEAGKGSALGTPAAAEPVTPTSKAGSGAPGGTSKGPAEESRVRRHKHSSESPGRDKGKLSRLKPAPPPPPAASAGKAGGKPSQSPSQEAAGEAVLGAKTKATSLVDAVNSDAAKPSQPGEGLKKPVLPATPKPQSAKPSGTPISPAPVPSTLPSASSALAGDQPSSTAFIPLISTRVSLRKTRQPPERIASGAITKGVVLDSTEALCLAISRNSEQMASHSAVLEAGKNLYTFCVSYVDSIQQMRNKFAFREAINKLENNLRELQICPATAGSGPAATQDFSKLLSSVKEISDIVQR
T20 sequence (Q96RR4 whole entry): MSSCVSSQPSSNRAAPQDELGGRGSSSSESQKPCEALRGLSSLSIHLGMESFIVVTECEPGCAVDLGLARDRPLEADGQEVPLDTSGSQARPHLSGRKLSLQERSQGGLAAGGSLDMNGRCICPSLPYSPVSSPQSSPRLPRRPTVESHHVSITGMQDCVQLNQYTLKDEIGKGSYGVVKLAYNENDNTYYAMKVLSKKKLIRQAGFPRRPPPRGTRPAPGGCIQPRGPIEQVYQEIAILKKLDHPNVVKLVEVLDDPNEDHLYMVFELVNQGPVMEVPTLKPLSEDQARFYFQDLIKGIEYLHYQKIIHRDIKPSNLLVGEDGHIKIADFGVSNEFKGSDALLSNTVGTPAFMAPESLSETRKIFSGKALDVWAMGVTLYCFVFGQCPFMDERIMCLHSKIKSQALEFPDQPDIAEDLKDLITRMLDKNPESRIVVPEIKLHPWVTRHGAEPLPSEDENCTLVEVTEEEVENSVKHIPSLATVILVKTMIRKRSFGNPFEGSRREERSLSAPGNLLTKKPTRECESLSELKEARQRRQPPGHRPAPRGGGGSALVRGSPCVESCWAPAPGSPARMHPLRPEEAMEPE

Work on `Clc1cc2cc(c1)-c1cnn3ccc(nc13)NCCOCCO2` [OD36] yielded an IC50 [1] of 47 nM, an inhibition at 0.1 µM [2] of 21% and an inhibition at 0.1 µM [3] of 33%. It also gave an inhibition at 0.1 µM [4] of 17%, an inhibition at 0.1 µM [5] of 20% and an inhibition at 0.1 µM [6] of -13%. It also gave an inhibition at 0.1 µM [7] of 17%, an inhibition at 0.1 µM [8] of 61% and an inhibition at 0.1 µM [9] of 17%. It also gave an inhibition at 0.1 µM [10] of 3%, an inhibition at 0.1 µM [11] of 16% and an inhibition at 0.1 µM [12] of 8%. It also gave an inhibition at 0.1 µM [13] of 11%, an inhibition at 0.1 µM [14] of 68% and an inhibition at 0.1 µM [15] of 13%. For the same compound, the inhibition at 0.1 µM [16] was 9%, the inhibition at 0.1 µM [17] was 7% and the inhibition at 0.1 µM [18] was 3%. It also gave an inhibition at 0.1 µM [19] of 8%, an inhibition at 0.1 µM [20] of 3% and an inhibition at 0.1 µM [21] of 3%. The inhibition at 0.1 µM [22] was 11%, the inhibition at 0.1 µM [23] was -2% and the inhibition at 0.1 µM [24] was -3%. It also gave an inhibition at 0.1 µM [25] of -3%, an inhibition at 0.1 µM [26] of 9% and an inhibition at 0.1 µM [27] of 32%. For the same compound, the inhibition at 0.1 µM [28] was 3%, the inhibition at 0.1 µM [29] was 18% and the “Inhibition of BMP-6-induced p-Smad1/5” value [30] was “efficiently inhibited”. The inhibition at 0.1 µM [31] was 59%, the inhibition at 0.1 µM [32] was 12% and the inhibition at 0.1 µM [33] was 19%. It also gave an inhibition at 0.1 µM [34] of 28%, an inhibition at 0.1 µM [35] of 7% and an inhibition at 0.1 µM [36] of 10%. For the same compound, the inhibition at 0.1 µM [37] was 15%, the inhibition at 0.1 µM [38] was 16% and the inhibition at 0.1 µM [39] was 2%.
Work on `Cc1cc2cc(c1)-c1cnn3ccc(nc13)NCCNC(=O)CCN(C)C2` [OD52] yielded an IC50 [1] of 72 nM, an inhibition at 0.1 µM [2] of 15% and an inhibition at 0.1 µM [3] of 33%. It also gave an inhibition at 0.1 µM [4] of -20%, an inhibition at 0.1 µM [5] of 0% and an inhibition at 0.1 µM [6] of 0%. It also gave an inhibition at 0.1 µM [7] of 34%, an inhibition at 0.1 µM [8] of 39% and an inhibition at 0.1 µM [9] of -3%. For the same compound, the inhibition at 0.1 µM [10] was -25%, the inhibition at 0.1 µM [11] was 22% and the inhibition at 0.1 µM [12] was -7%. The inhibition at 0.1 µM [13] was -23%, the inhibition at 0.1 µM [14] was 0% and the inhibition at 0.1 µM [15] was -11%. It also gave an inhibition at 0.1 µM [16] of -34%, an inhibition at 0.1 µM [17] of -6% and an inhibition at 0.1 µM [18] of 3%. It also gave an inhibition at 0.1 µM [19] of -1%, an inhibition at 0.1 µM [20] of -17% and an inhibition at 0.1 µM [21] of 2%. For the same compound, the inhibition at 0.1 µM [22] was -9%, the inhibition at 0.1 µM [23] was 15% and the inhibition at 0.1 µM [24] was 4%. For the same compound, the inhibition at 0.1 µM [25] was -1%, the inhibition at 0.1 µM [26] was -28% and the inhibition at 0.1 µM [27] was -14%. The inhibition at 0.1 µM [28] was 0%, the inhibition at 0.1 µM [29] was -2% and the “Inhibition of BMP-6-induced p-Smad1/5” value [30] was “efficiently inhibited”. For the same compound, the inhibition at 0.1 µM [31] was 6%, the inhibition at 0.1 µM [32] was 9% and the inhibition at 0.1 µM [33] was -8%. It also gave an inhibition at 0.1 µM [34] of 28%, an inhibition at 0.1 µM [35] of 5% and an inhibition at 0.1 µM [36] of -5%. The inhibition at 0.1 µM [37] was -10%, the inhibition at 0.1 µM [38] was -7% and the inhibition at 0.1 µM [39] was -5%.
